The source of these data is US20250066370A1, “BICYCLIC TRIAZINE DERIVATIVES FOR THE TREATMENT OF CANCER” (DEUTSCHES KREBSFORSCHUNGSZENTRUM, priority 2022, published 2025).

Some results are limits rather than exact numbers.

Assay [1] has as its target CDK12/CyclinK (Homo sapiens (Human), UniProt Q9NYV4). The assay is described as follows: CDK12/CycK high ATP kinase assay (TR-FRET). The class given is biochemical. Conditions: for IC50: 2 mM ATP (high ATP), median, read-out: CDK12/CyclinK, 2 mM ATP (high ATP), IC50 - [mol/l] (median); for (IC50 CDK12 high ATP) to (Degradation DC50 CDK12) ratio: IC50 CDK12 at 2 mM ATP divided by CDK12 degradation DC50 (IF, CAL-120). The procedure: In the context of the present invention, the term “IC50 CDK12 hATP” refers to the IC50 values obtained according to the assay described in this section (2.2) herein below, i.e. the IC50 values for the inhibition of CDK12 at high (2 mM) ATP.
CDK12/CycK-inhibitory activity of compounds of the present invention at 2 millimol/L adenosine-tri-phosphate (ATP) was quantified employing the TR-FRET (TR-FRET=Time Resolved Fluorescence Energy Transfer) based CDK12/CycK activity inhibition assay as described in the following paragraphs.
A complex of human recombinant CDK12 and human recombinant CycK (both N-terminally His-tagged, expression and purification as described above) was used as enzyme. As substrate for the kinase reaction biotinylated peptide biotin-Ahx-KFELLPTPPLSPSRRSGL (C-terminus in amid form) was used which can be purchased e.g. form the company Biosyntan (Berlin-Buch, Germany).
For the assay 50 nanoL of a 100 fold concentrated solution of the test compound in DMSO was pipetted into either a black low volume 384 well microtiter plate or a black 1536 well microtiter plate (both Greiner Bio-One, Frickenhausen, Germany), 2 microL of a solution of CDK12/CycK in aqueous assay buffer [25 millimol/L HEPES pH 7.5, 20 millimol/L MgCl2, 5 millimol/L β-glycerophosphate, 2 millimol/L EGTA, 1.0 millimol/L dithiothreitol, 0.01% (v/v) Nonidet-P40 (Sigma), 0.01% (w/v) bovine serum albumin] were added and the mixture was incubated for 15 min at 22° C. to allow pre-binding of the test compounds to the enzyme before the start of the kinase reaction. Then the kinase reaction was started by the addition of 3 microL of a solution ATP (3.33 millimol/L=>final conc. in the 5 microL assay volume is 2 millimol/L) and substrate (1.67 micromol/L=>final conc. in the 5 microL assay volume is 1 micromol/L) in assay buffer and the resulting mixture was incubated for a reaction time of 60 min at 22° C. The concentration of CDK12/CycK was adjusted depending of the activity of the enzyme lot and was chosen appropriate to have the assay in the linear range, typical concentrations were about 0.75 nanomol/L. The reaction was stopped by the addition of 3 microL of a solution of TR-FRET detection reagents (125 nanomol/L streptavidine-XL665 [Cisbio Bioassays, Codolet, France] and 0.67 nanomol/L anti-Phospho-c-Myc (Ser 62) (E1J4K)-antibody from Cell Signalling [#13748] and 2 nanomol/L LANCE EU-W1024 labeled anti-rabbit IgG antibody [Perkin-Elmer, product no. 0083]) in an aqueous EDTA-solution (133 millimol/L EDTA, 0.27% (w/v) bovine serum albumin in 66.7 millimol/L HEPES pH 7.5).
The resulting mixture was incubated 1 h at 22° C. to allow the formation of complex between the phosphorylated biotinylated peptide and the detection reagents. Subsequently the amount of phosphorylated substrate was evaluated by measurement of the resonance energy transfer from the Eu-chelate to the streptavidine-XL. Therefore, the fluorescence emissions at 620 nm and 665 nm after excitation at 350 nm was measured in a TR-FRET reader, e.g. a Pherastar FS (BMG Labtechnologies, Offenburg, Germany) or a Viewlux (Perkin-Elmer). The ratio of the emissions at 665 nm and at […] was taken as the measure for the amount of phosphorylated substrate. The data were normalised (enzyme reaction without inhibitor=0% inhibition, all other assay components but no enzyme=100% inhibition).
(Time-resolved FRET reads energy transfer from a long-lived donor to a nearby acceptor.)

Assay [2] deals with MDA-MB-231, human breast cancer cells. The assay is described as follows: Proliferation assay MDA-MB-231 (crystal violet). The class given is cell-based. Conditions: 96 h, MDA-MB-231 parental cells, 4 days, median, read-out: Prolif-MDA MB-231, IC50 - [mol/l] (median). The protocol: Human tumour cells were originally obtained from the American Type Culture Collection (ATCC), or from the Deutsche Sammlung von Mikroorganismen und Zellkulturen (DSMZ, German Collection of Microorganisms and Cell Cultures). Cultivated tumour cells (CAL-120, human breast adenocarcinoma cells, DSMZ ACC-459; MDA-MB-231, human breast cancer cells, ATCC HTB-26) were plated at a density of 4,000 cells/well in a 96-well multitier plate in 200 microL of their respective growth medium supplemented 10% fetal calf serum. After 24 hours, the cells of one plate (zero-point plate) were stained with crystal violet (see below), while the medium of the other plates was supplemented with the test substances in various concentrations (0 micromol/L, as well as in the range of 0.01-10 micromol/L; the final concentration of the solvent dimethyl sulfoxide was adjusted to 0.1%) using a Tecan HP D300 Digital Dispenser. The cells were incubated for 4 days in the presence of test substances. Cell proliferation was determined by staining the cells with crystal violet: the cells were fixed by adding 20 microL/measuring point of an 11% glutaric aldehyde solution for 15 minutes at room temperature. After three washing cycles of the fixed cells with water, the plates were dried at room temperature. The cells were stained by adding 100 microL/measuring point of a 0.1% crystal violet solution (pH 3.0). After three washing cycles of the stained cells with water, the plates were dried at room temperature. The dye was dissolved by adding 100 microL/measuring point of a 10% acetic acid solution. The extinction was determined by photometry at a wavelength of 595 nm. The change of cell number, in percent, was calculated by normalization of the measured values to the extinction values of the zero-point plate (=0%) and the extinction of the untreated (0 μM) cells (=100%). The IC50 values (inhibitory concentration at 50% of maximal effect) were determined by means of a 4 parameter fit.

Assay [3] relates to CYCLIN K. Kind of assay: CYCLIN K nuclear protein level: immunofluorescence/high content analysis in CAL-120 cells. The class given is cell-based, human. Conditions: 24 h, nuclear CCNK staining intensity, median, read-out: CYCLIN K degradation IF, DC50 - [mol/l] (median). The procedure: CAL-120 human breast cancer cells (DSMZ ACC 459) are seeded in 1536-well microtiter plates (800 cells per well) containing 50 nanoL of compounds in Dose-Response. Control wells received DMSO or Example 4. Plates are then incubated for 24 h at 37° C. in an humidified incubator and fixed with 4% PFA for 10 min. Then immunofluorescence (IF) against CYCLIN K (ThermoFisher Scientific CCNK Antibody #PA5-85020, rabbit, 1:200 dilution) is performed using standard IF protocols. Cells are then stained with Hoechst 33342 (Life Technologies, H-1399, 0.1 microg/ml) and imaged on an automated confocal microscopy system (e.g. Perkin Elmer Opera Phenix). Nuclear and cytoplasmic intensity as well as the nuclear/cytoplasmic intensity ratio is determined by automated image analysis using custom generated scripts (MetaXpress). Data is then transferred to Genedata Screener software, normalized to DMSO and control and DC50 values (degrading concentration to achieve 50% reduction of nuclear CCNK staining intensity relative to controls) are reported.

Sequence of CDK12/CyclinK (Q9NYV4 other isoform, or with tags, fused parts or gaps): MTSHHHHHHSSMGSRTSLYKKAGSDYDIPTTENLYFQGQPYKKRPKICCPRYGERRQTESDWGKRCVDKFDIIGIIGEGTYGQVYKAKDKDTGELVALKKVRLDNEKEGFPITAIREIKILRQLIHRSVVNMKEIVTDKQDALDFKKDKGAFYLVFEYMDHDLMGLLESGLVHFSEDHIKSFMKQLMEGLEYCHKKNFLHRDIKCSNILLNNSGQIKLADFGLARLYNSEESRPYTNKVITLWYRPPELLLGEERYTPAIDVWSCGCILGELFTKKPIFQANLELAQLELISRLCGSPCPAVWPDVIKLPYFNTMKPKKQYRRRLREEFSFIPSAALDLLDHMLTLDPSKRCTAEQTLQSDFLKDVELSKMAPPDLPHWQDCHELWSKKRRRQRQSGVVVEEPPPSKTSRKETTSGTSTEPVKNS
Sequence of CDK12/CyclinK (O75909 other isoform, or with tags, fused parts or gaps partner): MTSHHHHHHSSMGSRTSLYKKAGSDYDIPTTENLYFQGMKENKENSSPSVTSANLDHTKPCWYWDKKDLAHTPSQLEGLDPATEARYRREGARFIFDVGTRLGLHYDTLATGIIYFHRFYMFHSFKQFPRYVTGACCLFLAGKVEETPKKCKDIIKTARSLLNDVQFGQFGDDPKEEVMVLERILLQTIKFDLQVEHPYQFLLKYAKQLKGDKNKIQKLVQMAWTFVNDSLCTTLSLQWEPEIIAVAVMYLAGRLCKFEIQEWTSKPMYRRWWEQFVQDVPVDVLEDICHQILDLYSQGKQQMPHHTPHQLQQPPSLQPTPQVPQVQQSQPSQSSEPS

For `FC(F)(F)Oc1ccc(-c2nnc(CNc3nc(N4CCOCC4)nc4c(C(F)(F)F)cnn34)[nH]2)cc1` [Example 5, 2-(morpholin-4-yl)-N-({5-[4-(trifluoromethoxy)phenyl]-4H-1,2,4-triazol-3-yl}methyl)-8-(trifluoromethyl)pyrazolo[1,5-a][1,3,5]triazin-4-amine], the IC50 in assay [1] turned out to be 262 nM; in assay [2], 319 nM. In addition, in assay [1], the “(IC50 CDK12 high ATP) to (Degradation DC50 CDK12) ratio” value is on record as 0.26. In addition, the DC50 in assay [3] is above 1000 nM.
Consider `FC(F)(F)c1ccc(-c2nnc(CNc3nc(N4CCOCC4)nc4c(C(F)(F)F)cnn34)[nH]2)cc1` [Example 6, 2-(morpholin-4-yl)-8-(trifluoromethyl)-N-({5-[4-(trifluoromethyl)phenyl]-4H-1,2,4-triazol-3-yl}methyl)pyrazolo[1,5-a][1,3,5]triazin-4-amine], for which, in assay [1], the IC50 was 736 nM and the “(IC50 CDK12 high ATP) to (Degradation DC50 CDK12) ratio” value came out at 0.74. In addition, the IC50 in assay [2] came out at 777 nM. Moreover, the DC50 in assay [3] is above 1000 nM.
In the same order, the values of `FC(F)(F)Oc1ccc(-c2cnc(CNc3nc(N4CCOCC4)nn4c(C(F)(F)F)cnc34)[nH]2)cc1` [Example 8, 2-(morpholin-4-yl)-N-({5-[4-(trifluoromethoxy)phenyl]-1H-imidazol-2-yl}methyl)-7-(trifluoromethyl)imidazo[2,1-f][1,2,4]triazin-4-amine] are 8.34 nM, 9.34E−03, 114 nM and above 1000 nM.
In the same order, the values of `FC(F)(F)Oc1ccc(-c2cnc(CNc3nc(N4CCOCC4)nc4c(C(F)(F)F)cnn34)[nH]2)cc1` [Example 10, 2-(morpholin-4-yl)-N-({5-[4-(trifluoromethoxy)phenyl]-1H-imidazol-2-yl}methyl)-8-(trifluoromethyl)pyrazolo[1,5-a][1,3,5]triazin-4-amine] are 7.59 nM, below 7.59E−3, 123 nM and 228 nM.
`FC(F)(F)c1ccc(-c2nnc(CNc3nc(N4CCOCC4)nn4c(C(F)(F)F)cnc34)[nH]2)cc1` [Example 11, 2-(morpholin-4-yl)-7-(trifluoromethyl)-N-({5-[4-(trifluoromethyl)phenyl]-4H-1,2,4-triazol-3-yl}methyl)imidazo[2,1-f][1,2,4]triazin-4-amine]: in assay [1], the IC50 worked out at 32.3 nM and the “(IC50 CDK12 high ATP) to (Degradation DC50 CDK12) ratio” value stood at 0.04. Besides, in assay [2], the IC50 was found to be 434 nM. Besides, the DC50 in assay [3] was above 1000 nM.
On the same counts, the results for `COc1ccc(-c2nnc(CNc3nc(N4CCOCC4)nc4c(C(F)(F)F)cnn34)[nH]2)cn1` [Example 15, N-{[5-(6-methoxypyridin-3-yl)-4H-1,2,4-triazol-3-yl]methyl}-2-(morpholin-4-yl)-8-(trifluoromethyl)pyrazolo[1,5-a][1,3,5]triazin-4-amine] are 526 nM, below 0.53, 259 nM and above 1000 nM.
On to `FC(F)(F)c1ccc(-c2nnc(CNc3nc(N4CCOCC4)nn4c(C(F)(F)F)cnc34)[nH]2)cn1` [Example 20, 2-(morpholin-4-yl)-7-(trifluoromethyl)-N-({5-[6-(trifluoromethyl)pyridin-3-yl]-4H-1,2,4-triazol-3-yl}methyl)imidazo[2,1-f][1,2,4]triazin-4-amine], for which, in assay [1], the IC50 was 11.9 nM and the “(IC50 CDK12 high ATP) to (Degradation DC50 CDK12) ratio” value is reported as below 0.01. In addition, the IC50 in assay [2] turned out to be 52.9 nM. Moreover, the DC50 in assay [3] was above 1000 nM.
In the same order, the values of `Cc1ccc(-c2nnc(CNc3nc(N4CCOCC4)nn4c(C(F)(F)F)cnc34)[nH]2)cn1` [Example 23, N-{[5-(6-methylpyridin-3-yl)-4H-1,2,4-triazol-3-yl]methyl}-2-(morpholin-4-yl)-7-(trifluoromethyl)imidazo[2,1-f][1,2,4]triazin-4-amine] are 160 nM, below 0.16, 75.8 nM and 124 nM.
